Read-outs that look alike come from different tables or passages of the source.
Columns and labels:
[1] = test system: MOLM-13 (carrying MLL-AF9); assay: Inhibition of proliferation of human tumor cells (Alamar Blue, 7 days), MOLM-13; type: cell-based; details: Homo sapiens, MOLM-13 cells (carrying MLL-AF9), method calls the value GI50
Method in brief: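 MV-4-11: IMDM + 10% FBS; KG-1a: IMDM + 20% FBS; MOLM-13: RPMI-1640 + 20% FBS. 3- or 4-fold serial dilutions, duplicates, 7 d at 37°C. Readout Alamar Blue; GI50 vs Day 0 and Day 7 DMSO controls.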

Menin-MLL = target: T1, Menin-MLL (Homo sapiens, UniProt O00255); assay: Inhibitory activity against Menin-MLL binding (fluorescence polarization); details: 150 nM His-Menin, 15 nM FITC-MLL, 25°C for 60 min
T1 construct: His-Menin (M1-L615 end); purchased BIORTUS BP9210
T1 sequence (O00255 1-615 isoform O00255-1): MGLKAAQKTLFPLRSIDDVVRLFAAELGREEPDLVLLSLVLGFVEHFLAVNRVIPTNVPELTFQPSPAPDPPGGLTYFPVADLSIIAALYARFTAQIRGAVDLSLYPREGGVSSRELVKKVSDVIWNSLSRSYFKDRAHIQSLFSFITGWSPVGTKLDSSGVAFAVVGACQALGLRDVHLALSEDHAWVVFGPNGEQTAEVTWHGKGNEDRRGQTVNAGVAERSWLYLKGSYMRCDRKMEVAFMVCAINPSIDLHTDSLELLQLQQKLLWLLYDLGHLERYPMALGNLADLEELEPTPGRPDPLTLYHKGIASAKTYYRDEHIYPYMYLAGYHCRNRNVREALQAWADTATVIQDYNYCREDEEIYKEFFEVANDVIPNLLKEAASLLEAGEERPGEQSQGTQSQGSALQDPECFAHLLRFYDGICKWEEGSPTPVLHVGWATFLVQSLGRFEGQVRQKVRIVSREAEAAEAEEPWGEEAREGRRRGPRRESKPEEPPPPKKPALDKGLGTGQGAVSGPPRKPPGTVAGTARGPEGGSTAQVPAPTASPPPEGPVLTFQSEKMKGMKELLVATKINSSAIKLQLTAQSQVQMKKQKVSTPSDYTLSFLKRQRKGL
Method in brief: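 His-Menin (M1-L615, 150 nM) preincubated with compound 15 min at 25 °C in HEPES pH 7.5, 50 mM NaCl, 1 mM DTT, 0.01% BSA, then 15 nM FITC-MLL4-43 peptide added for 60 min at 25 °C. Fluorescence polarization read; IC50 from 4-parameter logistic fit, duplicates.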

[2] = fluorescence polarization, read-out: Menin-MLL IC50
[3] = Menin-MLL IC50, fluorescence polarization

IC50 ([1]; 168 h) [nM]	IC50 (Menin-MLL; [2]) [nM]	SMILES	IC50 ([1]; MOLM-13, 168 h) [nM]	IC50 (Menin-MLL; [3]) [nM]
19	3.4	CCN(C(=O)c1cc(F)ccc1-c1cc(OC2CN(C(CCCN3CCN(CCO)CC3)C(C)C)C2)n2c(C)cncc12)C(C)C (stereo not drawn) [Example 488, N-ethyl-5-fluoro-2-{6-[(1-{6-[4-(2-hydroxyethyl)piperazin-1-yl]-2-methylhexan-3-yl}azacyclobutan-3-yl)oxy]-4-methylpyrrolo[1,2-a]pyrazin-8-yl}-N-(isopropyl)benzamide]	–	–
–	–	CCN(C(=O)c1cc(F)ccc1-c1cc(C2CN(C(CCCN3CCNC(CC#N)C3)C(C)C)C2)cn2c(C)ncc12)C(C)C (stereo not drawn) [Example 498]	23	2.8
–	–	COCCN(C(=O)c1cc(F)ccc1-c1cc(C2CN([C@H](CCCN3C[C@H]4C[C@@H]3CO4)C(C)C)C2)cn2c(C)ncc12)C(C)C [Example 467-1, 5-fluoro-N-(2-methoxyethyl)-2-(3-methyl-6-{1-[(3R)-2-methyl-6-[(1R,4R)-2-oxa-5-azadicyclo[2.2.1]heptan-5-yl]hexan-3-yl]azacyclobutan-3-yl}imidazo[1,5-a]pyridin-8-yl)-N-(isopropyl)benzamide]	23	1.5
10	1.1	Cc1cncc2c(-c3ccc(F)cc3C(=O)N(C)C(C)C)cc(CC3CN([C@H](CCCN4CCN(CCO)CC4)C(C)C)C3)n12 [Example 477-1, 5-fluoro-2-[6-({1-[(3R)-6-[4-(2-hydroxylethyl)piperazin-1-yl]-2-methylhexan-3-yl]azacyclobutan-3-yl}methyl)-4-methylpyrrolo[1,2-a]pyrazin-8-yl]-N-methyl-N-(isopropyl)benzamide]	–	–
16	1.1	CCN(C(=O)c1cc(F)ccc1-c1cc(C2CN([C@H](CCCN3CCN(CC(=O)N(C)C)CC3)C(C)C)C2)cn2c(C)ncc12)C(C)C [Example 473]	–	–
9.9	2.7	CCC(=O)NC1CCN(CCC[C@H](C(C)C)N2CC(c3cc(-c4ccc(F)cc4C(=O)N(CC)C(C)C)c4cnc(C)n4c3)C2)CC1 [Example 425]	–	–
8.1	4.7	Cc1ncc2c(-c3ccc(F)cc3C(=O)N3CCOC[C@H]3C)cc(C3CN([C@H](CCCN4CCN(CC(F)(F)F)CC4)C(C)C)C3)cn12 [Example 385]	–	–
11	1.1	CCN(C(=O)c1cc(F)ccc1-c1cc(C2CN(C(CCCN3CCN(C)C(COC)C3)C(C)C)C2)cn2c(C)ncc12)C(C)C (stereo not drawn) [Example 508]	–	–
27	2.4	CCN(C(=O)c1cc(F)ccc1-c1cc(C2CN([C@H](CCCN3CCN(C(=O)C4(C#N)COC4)CC3)C(C)C)C2)cn2c(C)ncc12)C(C)C [Example 495]	–	–
–	–	CCN(C(=O)c1cc(F)ccc1-c1cc(C2CN([C@H](CN3CCN(C[C@@H](O)CO)CC3)C(C)C)C2)cc2c1cnn2C)C(C)C [Example 434]	32	8.8
3.9	5.1	Cc1ncc2c(-c3ccc(F)cc3C(=O)N3CCOC[C@H]3C)cc(C3CN([C@H](CCCN4CCN(CC(F)F)CC4)C(C)C)C3)cn12 [Example 364]	–	–
16	2.2	CCN(C(=O)c1cc(F)ccc1-c1cc(C2CN([C@H](CCCN3CC4(C3)CN(C(C)=O)C4)C(C)C)C2)cn2c(C)ncc12)C(C)C [Example 393]	–	–
66	6	CCN1CCN(CCC[C@H](C(C)C)N2CC(c3cc(-c4ccc(F)cc4C(=O)N4CCOC[C@H]4C)c4cnn(C)c4c3)C2)CC1 [Example 359]	–	–
4.7	1.9	Cc1ncc2c(-c3ccc(F)cc3C(=O)N(CC(F)F)C(C)C)cc(C3CN([C@H](CCCN4CCN(CCO)CC4)C(C)C)C3)cn12 [Example 459-1, N-(2,2-difluoroethyl)-5-fluoro-2-(6-{1-[(3R)-6-[4-(2-hydroxylethyl)piperazin-1-yl]-2-methylhexan-3-yl]azacyclobutan-3-yl}-3-methyl-imidazo[1,5-a]pyridin-8-yl)-N-(isopropyl)benzamide]	–	–
21	5.2	CCN(C(=O)c1cc(F)ccc1-c1cc(C2CN([C@H](CCCN3CCO[C@H](CO)C3)C(C)C)C2)cn2c(C)ncc12)C(C)C [Example 450]	–	–
8.1	2.3	CCN(C(=O)c1cc(F)ccc1-c1cc(C2CN([C@H](CCCN3CCC(S(C)(=O)=O)CC3)C(C)C)C2)cn2c(C)ncc12)C(C)C [Example 404]	–	–
8.5	1	CCN(C(=O)c1cc(F)ccc1-c1cc(C2CN([C@H](CCCN3CCN[C@H](COC)C3)C(C)C)C2)cn2c(C)ncc12)C(C)C [Example 503]	–	–
36	2.4	CCN(C(=O)c1cc(F)ccc1-c1cc(C2CN([C@H](CCCN3CCN(CCO)CC34COC4)C(C)C)C2)cn2c(C)ncc12)C(C)C [Example 482, N-ethyl-5-fluoro-2-(6-{1-[(3R)-6-[8-(2-hydroxyethyl)-2-oxa-5,8-diazaspiro[3.5]non-5-yl]-2-methylhexan-3-yl]azacyclobutan-3-yl}-3-methylimidazo[1,5-a]pyridin-8-yl)-N-(isopropyl)benzamide]	–	–
6	6.4	Cc1nc(F)c2c(-c3ccc(F)cc3C(=O)N3CCOC[C@H]3C)cc(C3CN(C(CC[C@H]4COCCN4)C(C)C)C3)cn12 (stereo partly drawn) [Example 373, (3R)-4-{5-fluoro-2-[1-fluoro-3-methyl-6-(1-{4-methyl-1-[(3S)-morpholin-3-yl]pentan-3-yl}azacyclobutan-3-yl)imidazo[1,5-a]pyridin-8-yl]benzoyl}-3-methylmorpholine]	–	–
52	3.7	CCN(C(=O)c1cc(F)ccc1-c1cc(C2CN([C@H](CN3CCN(C[C@H](O)CO)CC3)C(C)C)C2)cn2c(C)ncc12)C(C)C [Example 428]	–	–
–	–	Cc1nc(F)c2c(-c3ccc(F)cc3C(=O)N3CCOC[C@H]3C)cc(C3CN([C@H](CCCN4CCN(CC(F)F)CC4)C(C)C)C3)cn12 [Example 362]	2.8	4.6
7.2	1.6	CCN(C(=O)c1cc(F)ccc1-c1cc(C2CN([C@H](CCCN3CCC(NC(C)=O)CC3)C(C)C)C2)cc2c1cnn2C)C(C)C [Example 405]	–	–

SMILES	IC50 ([1]; 168 h) [nM]	IC50 (Menin-MLL; [2]) [nM]	IC50 ([1]; MOLM-13, 168 h) [nM]	IC50 (Menin-MLL; [3]) [nM]
Cc1ncc2c(-c3ccc(F)cc3C(=O)N(C)C(C)C)cc(C3CN([C@H](CCCN4CCN(CCO)CC4)C(C)C)C3)cn12 [Example 448-2]	–	2.2	13	–
CCN(C(=O)c1cc(F)ccc1-c1cc(C2CN([C@H](CCCN3C4CCC3CN(C(C)=O)C4)C(C)C)C2)cn2c(C)ncc12)C(C)C [Example 378, 2-(6-{1-[(3R)-6-{3-acetyl-3,8-diazabicyclo[3.2.1]oct-8-yl}-2-methylhexan-3-yl]azacyclobutan-3-yl}-3-methylimidazo[1,5-a]pyridin-8-yl)-N-ethyl-5-fluoro-N-(isopropyl)benzamide]	5.8	2.8	–	–
